Test systems include Lung A-549; Colon HCT-15; Neuroblastoma IMR-32; Liver HEP-2; Colon 502713.
What all share (settings): human

`COc1cc2c(cc1OCCCCN1CCN(C(=S)SCCC(C#N)(c3ccccc3)c3ccccc3)CC1)N=C[C@@H]1CCCN1C2=O` [Compound 12c, 3-cyano-3,3-diphenylpropyl 4-(4-[(11aS)-7-(methyloxy)-5-oxo-2,3,5,11a-tetrahydro-1H-benzo[e]pyrrolo[1,2-a][1,4]diazepin-8-yl]oxybutyl)hexahydro-1-pyrazinecarbodithioate]: the Preliminary in vitro cytotoxicity data came to 31% in the data set on Lung A-549; 75% in the data set on Colon HCT-15; 88 in the data set on Neuroblastoma IMR-32; 69% with Liver HEP-2; 75% in the data set with Colon 502713.

Values taken from US8592407B2, “Pyrrolo[2,1-c][1,4] benzodiazepine derivatives with dithiocarbamate side chains and process for the preparation thereof” (Council of Scientific & Industrial Research, priority 2008, dated 2013).
